# Patent US12370143B2, “Compound or salt thereof and lipid particles” (FUJIFILM Corporation, priority 2018, dated 2025)
# pIC50: −log10 of the molar value. Read-outs that look alike come from different tables or passages of the source.
# Assays:
# [1] = Particle size of nucleic acid lipid particles (Luc2-siRNA); type: physicochemical; settings: compound/DSPC/cholesterol/DMG-PEG2000 50/10/38.5/1.5
# Summary of the method: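 Lipid particles formed from oil phase (test lipid/DSPC/cholesterol/DMG-PEG2000, 50/10/38.5/1.5 molar, 20 mmol/L total in ethanol) micromixed 1:3 with Luc2-siRNA in pH 4 acetate buffer (19.7 μmol/L); siRNA/lipid 339 mol/mol, PBS-diluted and dialyzed. Size measured on ELS-Z2 dynamic light scattering.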
# [2] = test system: Factor VII (FVII) protein; test: Measurement of Factor VII (FVII) protein in mouse plasma after FVII-siRNA lipid particles; type: in vivo, C57BL6/J mice; settings: 0.1 mg/kg caudal vein, plasma 24 hours after administration, PBS group = 100%
# Protocol: (§1) The Factor VII (FVII) protein was measured according to the method described in Nature Biotechnology (2010) 28, 172-176. C57BL6/J mice were randomly grouped (n=3). A dispersion liquid of nucleic acid lipid particles was prepared by the same method as that in <Preparation of nucleic acid lipid particles>, except that FVII-siRNA having the sequence described in Molecular Therapy (2009) 17, p. 878 was used instead of Luc-siRNA. The dispersion liquid was administered to the caudal vein of the mice at a dosage of 0.1 mg/kg. For comparison, PBS at the same volume was administered to the caudal vein of the mice. Twenty four hours after the administration, blood was collected from the caudal vena cava, thereby obtaining plasma. The amount of FVII protein was quantified using the obtained plasma and a Biophen FVII assay kit (Aniara).
# The FVII amount in the plasma sample of each individual in the PBS administration group was regarded as 100%, and the ratio of the FVII amount in the plasma sample of each individual to 100% was adopted as a measurement value.
# [3] = Nucleic acid encapsulation rate of nucleic acid lipid particles (FVII-siRNA); type: physicochemical
# Protocol: A 3 mol/L aqueous sodium acetate solution (30 μL) and 9 μL of glycogen were added to 60 μL of the lipid particles retaining nucleic acids, and then 1.5 mL of ethanol was added thereto such that only the nucleic acids were precipitated while the lipid was dissolved. Then, the supernatant was removed by centrifugation. After the precipitates were air-dried for 15 minutes or longer, water was added thereto such that the precipitates were redissolved, and the concentration thereof was measured using Nanodrop NF1000 (Thermo Fisher Scientific), thereby quantifying the total nucleic acid concentration.
# The nucleic acid concentration was quantified using a Quant-iT RiboGreen RNA Assay Kit (Thermo Fisher Scientific) according to the protocol. First, a 20×TE buffer included in the above kit was diluted with water, thereby obtaining a 1×TE buffer. TE represents Tris/EDTA (ethylenediaminetetraacetic acid). In order to quantify only the nucleic acid in the outer water phase, the dispersion liquid of lipid particles retaining nucleic acids was diluted 10,000× with the 1×TE buffer.
# The 10,000× diluted dispersion liquid of lipid particles (100 μL) was put in a 96-well plate, then 100 μL of a RiboGreen reagent (reagent included in the Quanti-iT Ribogreen RNA Assay Kit described above) diluted 2000× with the 1×TE buffer was added to a sample, and fluorescence (excitation wavelength: 485 nm, fluorescence wavelength: 535 nm) was measured using a plate reader Infinit EF200 (TECAN), thereby quantifying the nucleic acid concentration in the outer water phase.
# By using the total nucleic acid concentration obtained through the above steps and the quantified nucleic acid concentration in the outer water phase, the nucleic acid encapsulation rate of the nucleic acid lipid particles was calculated according to the following Equation. Nucleic acid encapsulation rate (%)=(total nucleic acid concentration−nucleic acid concentration in outer water phase)/total nucleic acid concentration×100 The results are shown in Table 2.
# as §1
# [4] = Encapsulation rate of siRNA in nucleic acid lipid particles (Luc2-siRNA); type: physicochemical; settings: compound/DSPC/cholesterol/DMG-PEG2000 50/10/38.5/1.5
# Summary of the method: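 Encapsulation rate was calculated as (total − outer-phase siRNA)/total ×100. Total siRNA was quantified spectrophotometrically after lipid-dissolving ethanol precipitation, and unencapsulated siRNA by RiboGreen in TE (ex 485/em 535 nm). The particles were test lipid/DSPC/cholesterol/DMG-PEG2000 at 50/10/38.5/1.5, formed by microfluidic mixing with Luc2-siRNA at pH 4 and dialyzed against PBS.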
# [5] = Particle size of nucleic acid lipid particles (FVII-siRNA); type: physicochemical
# Protocol: The compounds described in Table 2, L-α-distearoylphosphatidylcholine (trade name: COATSOME® MC-8080; NOF corporation), cholesterol (trade name: Choesterol HP; NIPPON FINE CHEMICAL CO., LTD.), and 1,2-dimyristoyl-rac-glycero-3-(methylpolyoxyethylene 2000) (hereinafter, called DMG-PEG2000) (trade name: SUNBRIGHT® GM-020; NOF corporation) were dissolved in ethanol at a molar ratio of 50/10/38.5/1.5 such that the total lipid concentration became 20 mmol/L, thereby obtaining an oil phase.
# An aqueous nucleic acid solution obtained by dissolving 5 mg of Luc2-siRNA having the sequence described in Biomacromolecules (2013) 14, p. 3905 in 1 mL of sterile water was diluted with 10 mmol/L acetate buffer having a pH 4 such that the nucleic acid concentration became 19.7 μmol/L, thereby obtaining a water phase. Then, the water phase and the oil phase were mixed together by a micromixer (see JP5288254B) using a syringe pump such that the volume ratio of water phase:oil phase became 3:1 (final ratio of siRNA/lipid=339 (mol/mol)), and the mixed solution was diluted 2× with PBS, thereby obtaining a dispersion liquid of nucleic acid lipid particles. The dispersion liquid was dialyzed (Slide-A-Lyzer G2, MWCO: 10 kD, Thermo Fisher Scientific) using a phosphate buffered saline such that ethanol was removed, thereby obtaining nucleic acid lipid particles.
# The particle size of the nucleic acid lipid particles was measured by the same method as that in <Preparation of lipid particles>.
# as §1
# [6] = test system: DMS273 cells constantly expressing Luc; test: Target reporter protein (Luc) knockdown in cell, reporter protein assay; type: cell-based; settings: Homo sapiens, DMS-273
# Protocol: The nucleic acid lipid particles prepared by the same method as that in <Preparation of nucleic acid lipid particles> by using the compounds described in Table 3 were evaluated by reporter assay by the following method.
# By using pGL4.50 Luc2 (E1310 Promega), DMS273 cells (human small cell lung cancer) (European Collection of Authenticated Cell Cultures) constantly expressing Luc were prepared. RPMI (Gibco) (10% FBS (Gibco), 1% Penicillin-Streptomycin (Gibco), and 200 μg/mL Hygromycin (Wako)) was used as a culture medium. DMS273 cells (2.0×10^3) constantly expressing luciferase (Luc) were seeded in a 96-well plate and cultured in a 5% CO2 incubator for 24 hours, and then the medium was replaced. Then, 10 μL of each of the dispersion liquids of lipid particles diluted with PBS (Gibco) to yield a concentration of 1 to 1,000 nmol/L was added to the 96-well plate, and the final concentration was adjusted to 0.1 to 100 nmol/L (total amount of liquid: 110 μl). Thereafter, the cells were cultured in a 5% CO2 incubator for 24 hours, the medium was then replaced, and the cells were further cultured for 24 hours.
# After the viable cell count was determined, the expression amount of Luc was quantified using a Steady Glo assay kit (Promega), and the knockdown efficiency was calculated according to the following equation. Then, the IC50 concentration at which the expression amount of Luc was knocked down to 50% was calculated.
# [7] = Luc2-siRNA lipid particles using the compound, siRNA 0.1 to 100 nmol/L, concentration at which Luc expression is knocked down to 50%, read-out: IC50
Structure (SMILES),Relative amount of FVII protein (%) [2] [%],"pIC50 [6, 7]",also measured
"CCCCC/C=C\C/C=C\CCCCCCCCC(CCCCCCCC/C=C\C/C=C\CCCCC)OC(=O)OCCCN(C)C [Comparative Example 8, 3-(Dimethylamino)propyl((6Z,9Z,28Z,31Z)-heptatriaconta-6,9,28,31-tetraen-19-yl)carbonate, reference compound]",58,–,Particle size (nm) [1]: 63.1 nm; Nucleic acid encapsulation rate [3]: 78%; Nucleic acid encapsulation rate [4]: 59%; Particle size (nm) [5]: 63.4 nm
"CCCCCCCC/C=C\CCCCCCCC(=O)OCCCCCCC(CCCCCCOC(=O)CCCCCCC/C=C\CCCCCCCC)OC(=O)OCCN(CC)CCN(CC)CC [Example 41, 7-(((2-((2-(diethylamino)ethyl)(ethyl)amino)ethoxy)carbonyl)oxy)tridecane-1,13-diyldioleate]",18,7.85,–
"CCCCCCCC/C=C\CCCCCCCC(=O)OCCCCCCC(CCCCCCOC(=O)CCCCCCC/C=C\CCCCCCCC)OC(=O)OCCN(CCN(CC)CC)C(C)C [Example 48, 7-(((2-((2-(Diethylamino)ethyl)(isopropyl)amino)ethoxy)carbonyl)oxy)tridecane-1,13-diyldioleate]",20,7.37,–
"CCCCCCCCC(CCCCCC)C(=O)OCCCCCCC(CCCCCCOC(=O)C(CCCCCC)CCCCCCCC)OC(=O)OCCN(CC)CCN(CC)CC (centres unmarked) [Example 56, 7-(((2-((2-(Diethylamino)ethyl)(ethyl)amino)ethoxy)carbonyl)oxy)tridecane-1,13-diylbis(2-hexyldecanoate)]",3,7.72,–
"CCCCCCCCCC(CCCCCCC)C(=O)OCCCCCCC(CCCCCCOC(=O)C(CCCCCCC)CCCCCCCCC)OC(=O)OCCN(CC)CCN(CC)CC (centres unmarked) [Example 58, 7-(((2-((2-(Diethylamino)ethyl)(ethyl)amino)ethoxy)carbonyl)oxy)tridecane-1,13-diylbis(2-heptylundecanoate)]",14,–,–
"CCN(CC)CCN(CC)CCOC(=O)OC(CCCCCCOC(=O)C(CCC(C)CC(C)(C)C)C(C)CC(C)(C)C)CCCCCCOC(=O)C(CCC(C)CC(C)(C)C)C(C)CC(C)(C)C (centres unmarked) [Example 59, 7-(((2-((2-(Diethylamino)ethyl)(ethyl)amino)ethoxy)carbonyl)oxy)tridecane-1,13-diylbis(2-(4,4-dimethylpentan-2-yl)-5,7,7-trimethyloctanoate)]",10,–,–
"CCCCCCCCC(CCCCCC)C(=O)OCCCCCCC(CCCCCCOC(=O)C(CCCCCC)CCCCCCCC)OC(=O)OCCN(CCN(CC)CC)C(C)C (centres unmarked) [Example 62, 7-(((2-((2-(Diethylamino)ethyl)(isopropyl)amino)ethoxy)carbonyl)oxy)tridecane-1,13-diylbis(2-hexyldecanoate)]",3,–,–
"CCCCCCCCC(CCCCCCCC)CC(=O)OCCCCCCC(CCCCCCOC(=O)CC(CCCCCCCC)CCCCCCCC)OC(=O)OCCN(CC)CCN(CC)CC [Example 65, 7-(((2-((2-(Diethylamino)ethyl)(ethyl)amino)ethoxy)carbonyl)oxy)tridecane-1,13-diylbis(3-octylundecanoate)]",11,–,–
"CCCCCCC(CCCCCC)CC(=O)OCCCCCCC(CCCCCCOC(=O)CC(CCCCCC)CCCCCC)OC(=O)OCCN(CC)CCN(CC)CC [Example 67, 7-(((2-((2-(Diethylamino)ethyl)(ethyl)amino)ethoxy)carbonyl)oxy)tridecane-1,13-diylbis(3-hexylnonanoate)]",5,7.66,–
"CCCCCCCC(CCCCCCC)CC(=O)OCCCCCCC(CCCCCCOC(=O)CC(CCCCCCC)CCCCCCC)OC(=O)OCCN(CC)CCN(CC)CC [Example 70, 7-(((2-((2-(diethylamino)ethyl)(ethyl)amino)ethoxy)carbonyl)oxy)tridecane-1,13-diylbis(3-heptyldecanoate)]",6,–,pIC50 [6]: 7.62
"CCCCCCCCC(CCCCCC)C(=O)OCCCCCC(CCCCCOC(=O)C(CCCCCC)CCCCCCCC)OC(=O)OCCN(CC)CCN(CC)CC (centres unmarked) [Example 71, 6-(((2-((2-(Diethylamino)ethyl)(ethyl)amino)ethoxy)carbonyl)oxy)undecane-1,11-diylbis(2-hexyldecanoate)]",4,–,–
"CCCCCCCCC(CCCCCC)C(=O)OCCCCC(CCCCOC(=O)C(CCCCCC)CCCCCCCC)OC(=O)OCCN(CC)CCN(CC)CC (centres unmarked) [Example 73, 5-(((2-((2-(Diethylamino)ethyl)(ethyl)amino)ethoxy)carbonyl)oxy)nonane-1,9-diylbis(2-hexyldecanoate)]",1,–,pIC50 [6]: 7.62
"CCCCCCCCC(CCCCCCCC)C(=O)OCCCCCCC(CCCCCCOC(=O)C(CCCCCCCC)CCCCCCCC)OC(=O)OCCN(CC)CCN(CC)CC [Example 74, 7-(((2-((2-(Diethylamino)ethyl)(ethyl)amino)ethoxy)carbonyl)oxy)tridecane-1,13-diylbis(2-octyldecanoate)]",4,–,pIC50 [6]: 7.66
"CCCCCCCC(CCCCCCC)C(=O)OCCCCCCC(CCCCCCOC(=O)C(CCCCCCC)CCCCCCC)OC(=O)OCCN(CC)CCN(CC)CC [Example 76, 7-(((2-((2-(Diethylamino)ethyl)(ethyl)amino)ethoxy)carbonyl)oxy)tridecane-1,13-diylbis(2-heptylnonanoate)]",4,7.74,–
